# Assay results taken from patent US4663334A, “Heteroaromatic acetylenes useful as antihypertensive agents” (McNeilab, Inc., priority 1985, dated 1987).
# Structures can show the parent of a compound that is named as a salt.
# System: spontaneously hypertensive rats
# Assay: Spontaneously Hypertensive Rat (SHR) test
# Assay type: in vivo
# Conditions: oral dose 30 mg/kg
# From the text: The activity of compounds of formula (I) for the treatment of hypertension may be determined using the Spontaneously Hypertensive Rat (SHR) test as described below.
# In this test, the arterial pressure of adult spontaneously hypertensive rats (Charles River) is monitored directly via an aortic cannula. The SH rats are anesthetized with an inhalation anesthetic (ether). The left carotid artery is isolated and cannulated. The tip of the cannula is advanced to the aorta and the cannula is exteriorized behind the neck at the level of the scapula. Animals are placed in individual cages and allowed to recover from the anesthetic and are kept unrestrained. The arterial cannula is connected to the pressure transducer which is attached to the recorder. The test compounds are administered to at least 3 rats at doses selected in the range of 0.1 to 100 mg/kg of body weight by intraperitoneal (i.p.) or oral (p.o.) routes of administration. The arterial pressure and heart rate are monitored for a minimum of 24 hours. A test compound is considered to be active as an antihypertensive agent if the mean arterial pressure (MAP) indicates a fall of >15 mm of Hg. Each animal serves as its own control.
Compound,duration of blood pressure reduction [h],heart rate change [beats/min],reduction of hypertensive blood pressure (mean arterial pressure) [mm Hg]
"CC(C)(C)NCC(O)COc1ccccc1C#Cc1ccncc1.O=C(O)/C=C/C(=O)O (stereo not drawn) [Example 1, 1-[(1,1-Dimethylethyl)amino]-3-[2-(4-pyridinylethynyl)phenoxy]-2-propanol (E)-2-Butenedioate]",7.5,-87,-46
"CC(C)(C)NCC(O)COc1ccccc1C#Cc1cccnc1 (stereo not drawn) [Example 2, 1-[(1,1-Dimethylethyl)amino]-3-[2-(3-pyridinylethynyl)phenoxy]-2-propanol Hydrochloride Hydrate (4:4:1)]",10.5,-41,-54
